Results on five molecules are retold here after patent US11547681B2, “N-acylethanolamide derivatives and uses thereof” (ELIEM THERAPEUTICS, INC., priority 2016, dated 2023).

A short description of series [1]: in vitro. Here is the method: (§1) The reaction mixture, minus cofactors, was prepared as described below. The test article was added into the reaction mixture at a final concentration of 1 μM. […] An aliquot of the reaction mixture (without cofactor cocktail) was equilibrated in a shaking water bath at 37° C. for 3 minutes. The reaction was initiated by the addition of cofactor cocktail, and the mixture was incubated in a shaking water bath at 37° C. Aliquots (100 μL) were withdrawn at 0, 10, 20, 30, and 60 minutes. All samples were immediately combined with 400 uL of icecold 50/50 acetonitrile/H2O containing 0.1% formic acid and internal standard to terminate the reaction. The samples were then mixed and centrifuged to precipitate proteins. Calibration standards were prepared in matched matrix. All samples and standards were assayed by LC-MS/MS using electrospray ionization for both the dosed prodrug I-9 and the expected drug (PEA). Analytical conditions are outlined in Appendix 4-1. The test article concentration at each time point was compared to the test article concentration at time 0 to determine the percent remaining at each time point. Half-lives were calculated using GraphPad software, fitting to single-phase exponential decay equation.
(§2) Reaction mixture, minus cofactors, was prepared as described below. Test article was added into the reaction mixture at a final concentration of 1 μM. […] An aliquot of the reaction mixture (without cofactor cocktail) was equilibrated in a shaking water bath at 37° C. for 3 minutes. The reaction was initiated by the addition of cofactor cocktail, and the mixture was incubated in a shaking water bath at 37° C. Aliquots (100 μL) were withdrawn at 0, 10, 20, 30, and 60 minutes. Test article samples were immediately combined with 300 μL of ice-cold acetonitrile containing 1% formic acid. Control samples were immediately combined with 400 μL of ice-cold 50/50 acetonitrile (ACN)/dH2O containing 0.1% formic acid and internal standard to terminate the reaction. Samples were then mixed and centrifuged to precipitate proteins. Calibration standards were prepared in matched matrix. Samples and standards were assayed by LC-MS/MS using electrospray ionization for both the dosed prodrug and the expected drug (PEA). Analytical conditions are outlined in Appendix 8-1. Test article concentration at each time point was compared to test article concentration at time 0 to determine the percent remaining at each time point. Halflives were calculated using GraphPad software, fitting to a single-phase exponential decay equation.
as §2, with “for 5” for “for 3”, “minutes. Reaction” for “minutes. The reaction”, “and” for “and the”, “both” for “both the”, “Appendix 10-1.” for “Appendix 8-1.”
(§3) Reaction mixture, minus cofactors, was prepared as described below.

Series [2] in a line: in vitro. The procedure: as §1, §2
as §2, with “for 5” for “for 3”, “minutes. Reaction” for “minutes. The reaction”, “and” for “and the”, “both” for “both the”, “Appendix 10-1.” for “Appendix 8-1.”
as §3
This is another data set of the same source.

The nature of series [3]: in vitro. To be noted: s9. Here is the method: Reaction mixture, minus cofactors, was prepared as described below. Test article was added into the reaction mixture at a final concentration of 1 μM. […] An aliquot of the reaction mixture (without cofactor cocktail) was equilibrated in a shaking water bath at 37° C. for 3 minutes. The reaction was initiated by the addition of cofactor cocktail (see below), and the mixture was then incubated in a shaking water bath at 37° C. Aliquots (100 μL) were withdrawn 0, 10, 20, 30 and 60 minutes. Test article samples were immediately combined with 300 μL of ice-cold acetonitrile containing 1% formic acid. Control samples were immediately combined with 400 μL of ice-cold 50/50 acetonitrile (ACN)/dH2O containing 0.1% formic acid and internal standard to terminate the reaction. Samples were then mixed and centrifuged to precipitate proteins. Calibration standards were prepared in matched matrix. Samples and standards were assayed by LC-MS/MS using electrospray ionization for both the dosed prodrug and the expected drug (PEA). Analytical conditions are outlined in Appendix 8-1. Test article concentration at each time point was compared to the test article concentration at time 0 to determine the percent remaining at each time point. Half-lives were calculated using GraphPad software, fitting to a single-phase exponential decay equation.
Reaction mixture, minus cofactors, was prepared as described below. Test article was added into the reaction mixture at a final concentration of 1 μM. […] An aliquot of the reaction mixture (without cofactor cocktail) was equilibrated in a shaking water bath at 37° C. for 5 minutes. Reaction was initiated by the addition of cofactor cocktail (see below), and mixture was then incubated in a shaking water bath at 37° C. Aliquots (100 μL) were withdrawn at 0, 10, 20, 30, and 60 minutes. Test article samples were immediately combined with 300 μL of ice-cold acetonitrile containing 1% formic acid. Control samples were immediately combined with 400 μL of ice-cold 50/50 acetonitrile (ACN)/dH2O containing 0.1% formic acid and internal standard to terminate the reaction. Samples were then mixed and centrifuged to precipitate proteins. Calibration standards were prepared in matched matrix. Samples and standards were assayed by LC-MS/MS using electrospray ionization for both dosed prodrug and expected drug (PEA). Analytical conditions are outlined in Appendix 10-1. Test article concentration at each time point was compared to test article concentration at time 0 to determine the percent remaining at each time point. Half-lives were calculated using GraphPad software, fitting to a single-phase exponential decay equation.
The reaction mixture, minus cofactors, was prepared as described below. Test article was added into the reaction mixture at a final concentration of 1 μM. […] An aliquot of the reaction mixture (without cofactor cocktail) was equilibrated in a shaking water bath at 37° C. for 3 minutes. Reaction was initiated by the addition of cofactor cocktail (see below), and the mixture was then incubated in a shaking water bath at 37° C. Aliquots (100 μL) were withdrawn at 0, 10, 20, 30, and 60 minutes. Test article samples were immediately combined with 300 μL of ice-cold acetonitrile containing 1% formic acid. Control samples were immediately combined with 400 μL of ice-cold 50/50 acetonitrile (ACN)/dH2O containing 0.1% formic acid and internal standard to terminate the reaction. Samples were then mixed and centrifuged to precipitate proteins. Calibration standards were prepared in matched matrix. Samples and standards were assayed by LC-MS/MS using electrospray ionization for both dosed prodrug and expected drug (PEA). Analytical conditions are outlined in Appendix 13-1. Test article concentration at each time point was compared to the test article concentration at time 0 to determine the percent remaining at each time point.

Series [4] is described as follows: in vitro. Here is the method:
as §2
as §2, with “for 5” for “for 3”, “minutes. Reaction” for “minutes. The reaction”, “and” for “and the”, “both” for “both the”, “Appendix 10-1.” for “Appendix 8-1.”
(§4) Reaction mixture, minus cofactors, was prepared as described below. Test article was added into the reaction mixture at a final concentration of 1 μM. […] An aliquot of the reaction mixture (without cofactor cocktail) was equilibrated in a shaking water bath at 37° C. for 3 minutes. Reaction was initiated by the addition of cofactor cocktail, and the mixture was incubated in a shaking water bath at 37° C. Aliquots (100 μL) were withdrawn at 0, 10, 20, 30, and 60 minutes. Test article samples were immediately combined with 300 μL of ice-cold acetonitrile containing 1% formic acid. Control samples were immediately combined with 400 μL of ice-cold 50/50 acetonitrile (ACN)/dH2O containing 0.1% formic acid and internal standard to terminate the reaction. Samples were then mixed and centrifuged to precipitate proteins. Calibration standards were prepared in matched matrix. Samples and standards were assayed by LC-MS/MS using electrospray ionization for both dosed prodrug and expected drug (PEA). Analytical conditions are outlined in Appendix 13-1. Test article concentration at each time point was compared to test article concentration at time 0 to determine the percent remaining at each time point. Halflives were calculated using GraphPad software, fitting to a single-phase exponential decay equation.
The source holds these as a separate data set.

The nature of series [5]: in vitro. The procedure:
as §2
as §4, with “for 5” for “for 3”, “and” for “and the”, “Appendix 10-1.” for “Appendix 13-1.”
as §4
This is another data set of the same source.

A short description of series [6]: Summary of half life data (Table A), matrix not stated. In kind it is in vitro ADME.
Series [7] in a line: Simulated intestinal fluid stability, SIF containing pancreatin. The class given is in vitro ADME. To be noted: for % Remaining of Initial (n = 1): 1 μM; for Measured Concentration of Drug: test article dosed at 1 μM. Here is the method: (§5) Studies were carried out in simulated intestinal fluid containing pancreatin. Simulated intestinal fluid was prepared by dissolving 6.8 g of monobasic potassium phosphate in 1.0 L of water. Pancreatin was then added to the solution and the pH was adjusted to 6.8. A DMSO stock was first prepared for the test articles. Aliquots of the DMSO solution were dosed into 300 μL of matrix, which had been pre-warmed to 37° C., at a final test article concentration of 1 μM. An individual tube was dosed for each time point. At each time point (0, 15, 30, 60, and 120 minutes), 900 μL of ice-cold acetonitrile containing 1.0% formic acid was added to an individual tube. Starting time for each tube was staggered such that all timepoints would finish at the same time. After the conclusion of the experiment, tubes were mixed and then centrifuged at 3,000 rpm for 10 minutes. Calibration standards were prepared in matched matrix. […] Analytical conditions are outlined in Appendix 11-1.
as §5, with “prepared for test articles.” for “prepared for the test articles.”, “Aliquots of DMSO solution” for “Aliquots of the DMSO solution”, “individual tube. The starting time for” for “individual tube. Starting time for”, “that all time points would finish” for “that all timepoints would finish”, “in Appendix 14-1.” for “in Appendix 11-1.”

The conditions of series [8]: male, Sprague-Dawley, rat, in vivo, po.
Description: PEA was also dosed intravenously at 1 mg/kg. Blood samples were collected up to 8 hours post-dose, and PEA and PEA-prodrug plasma concentrations were determined with a qualified LC-MS/MS method. Pharmacokinetic analysis was conducted by a non-compartmental model using Phoenix WinNonlin v.6.4 software.
The IV dosing solution was prepared fresh on the day of dosing at 0.5 mg/mL in a vehicle comprised of 10% solutol HS15, 10% n-methylpyrrolidone (NMP), 10% polyethylene glycol 400 (PEG400), and 70% water. For PO dosing, torpac capsules were loaded with an appropriate amount of PEA, PEA-prodrug, or normast powder. […] The prodrug dose in group 5 was the maximum amount of powder that would fit into a single capsule.
The pharmacokinetics of PEA and the PEA-prodrug were evaluated in fasted male Sprague-Dawley rats. Rats were housed one per cage. Each rat was fitted with a jugular vein cannula (JVC) for blood collection. Rats intended for IV dosing were fitted with an additional JVC for dosing. Each study group was dosing in triplicate. Rats were fasted for a minimum of twelve hours prior to dosing. Food was returned at four hours post dosing. Animals had free access to water throughout the study.
Blood samples (˜300 μL) were collected from the rats via a JVC and placed into chilled polypropylene tubes containing sodium heparin as an anticoagulant, and 30 μL of 0.5 M citric acid. Samples were maintained chilled throughout processing. Blood samples were centrifuged at 4° C. and 3,000 g for 5 minutes. Plasma (˜150 μL) was then transferred to a chilled, labeled polypropylene tube containing 15 μL of 10% formic acid, placed on dry ice, and stored in a freezer maintained at −60° C. to −80° C.
Pharmacokinetic parameters were determined with Phoenix WinNonlin (v6.4) software using a non-compartmental model. Maximum plasma concentrations (C0) after IV dosing were estimated by extrapolation of the first two time points back to t=0. […] Area under the time concentration curve (AUC) was calculated using the linear trapezoidal rule with calculation to the last quantifiable data point, and with extrapolation to infinity if applicable. […] Mean residence time, MRT, was calculated by dividing the area under the moment curve (AUMC) by the AUC. Clearance (CL) was calculated from dose/AUC. Steady-state volume of distribution (Vss) was calculated from CL*MRT (mean residence time). Bioavailability was determined by dividing the individual PO dose normalized AUClast values by the average IV AUClast value. Any samples below the limit of quantitation were treated as zero for pharmacokinetic data analysis.
Measured concentrations of PEA in plasma samples were corrected by subtracting the concentration of PEA measured in the pre-dose samples. […] Any corrected values that were negative are reported as not determined (ND).
Series [9] deals with patients with distal ulcerative colitis. To be noted: cited from earlier work.

Each structure is given as a SMILES string. Where two headings read alike, the source gives them in different places.

On to `O=c1ccc2ccc(O)cc2o1` [Compound 7-HC, 7-hydroxycoumarin, reference compound], for which the microsomal CLint in “in vitro [1]” (both, human, s9, Clint, control compound) came to 943 µL/min/mg; in the series “in vitro [2]” (male, Sprague-Dawley, rat, s9, Clint, control compound), 20.1 µL/min/mg. Besides, the half-life in the series “in vitro [1]” (both, human, s9, Half-life (min)) came to 13 min; in the series “in vitro [1]” (both, human, s9, Half-life, control compound) it was 7.3 min; in “in vitro [2]” (male, Sprague-Dawley, rat, s9, Half-life, control compound), 34 min.

In the case of `O=c1ccc2ccc(O)cc2o1` [Compound 7-hydroxycourmann], the CLint in “in vitro [3]” (dog) is recorded as 0.512 ml/min/mg protein; in “in vitro [3]” (human) it was 0.0472 ml/min/mg protein; in “in vitro [3]” (mouse), 0.313 ml/min/mg protein; in the series “in vitro [3]” (rat) it was 0.362 ml/min/mg protein. Also, the Half-life was found to be 1.4 min in the series “in vitro [3]” (dog), 15 min in “in vitro [3]” (human), 2.2 min in the series “in vitro [3]” (mouse) and 1.9 min in the series “in vitro [3]” (rat).

With `O=c1ccc2ccc(O)cc2o1` [Compound 7-hydroxycourmarin], the CLin in “in vitro [4]” was 0.0770 ml/min/mg protein; in the series “in vitro [5]” it was 0.138 ml/min/mg protein; in “in vitro [1]” it was 0.0522 ml/min/mg protein; in “in vitro [2]”, 0.0242 ml/min/mg protein. The CLint in “in vitro [4]” (dog, s9) stood at 0.0799 ml/min/mg protein; in “in vitro [5]” (mouse, s9), 0.160 ml/min/mg protein; in “in vitro [1]” (human, s9), 0.0698 ml/min/mg protein; in the series “in vitro [2]” (rat, s9), 0.0320 ml/min/mg protein.

Turning to `CCCCCCCCCCCCCCCC(=O)NCCOC(=O)CCC(=O)OC[C@H](COC(=O)CCC)OC(=O)CCC` [Compound I-14], in [6], the half-life came out at 7.5 min. The “% Remaining of Initial (n = 1)” value in series [7] (0 min) was 100%; in [7] (15 min), 25%; in [7] (30 min), less than 2.2%; in series [7] (60 min), less than 2.2%; in series [7] (120 min), less than 2.2%. The “Measured Concentration of Drug” value in [7] (0 min) was 0.19 µM; in series [7] (15 min), 0.047 µM; in [7] (30 min), 0 µM; in series [7] (60 min), 0 µM; in [7] (120 min) it was 0 µM. In addition, the half-life at 1 μM in series [7] (simulated intestinal fluid containing pancreatin, pH 6.8, 1 μM) was 7.6 min. The same molecule had a Bioavailability in series [8] of 4.39%. Further, the “Dose-normalized AUC∞ (PEA)” value in [8] was determined as 4.81 kg·ng·h/mL/mg.

In the case of `CCCC(=O)[O-].[Na+]` [sodium butyrate], in [9] (after butyrate irrigation), the “discharge of blood ceased” value is given as 9 of 10 and the overall crypt proliferation result is listed as “unchanged”. Further, the “upper crypt-labeling index after butyrate irrigation” value in [9] (before 0.086±0.019) is recorded as 0.032±0.003. Also, in series [9] (before 2.4±0.3), the “histological degree of inflammation after butyrate irrigation” value was 1.5±0.3. The “endoscopic score after butyrate irrigation” value in [9] (before 6.5±0.4) was 3.8±0.8. Further, the “stool frequency after butyrate irrigation” value in series [9] (sodium butyrate 100 mmol/L enemas 2 weeks, 10 patients, before 4.7±0.5) is 2.1±0.4 n/day.

The microsomal CLint is a measure of how fast metabolising enzymes remove a compound, apart from limits set by blood flow. Low readings indicate greater metabolic stability, high ones faster metabolism. A word on the half-life: it is how long it takes for the measured level to halve. Read a low half-life as fast loss.
